# Experimental data: patent US20200164005A1, “PHARMACEUTICAL COMPOSITIONS OF A BILE ACID DERIVATIVE AND MICROBIOME AND USES THEREOF” (Intercept Pharmaceuticals, Inc., priority 2017, published 2020)
# Tests used:
# [1] = tested on: KEGG pathways of the gut microbiome; assay: KEGG pathway differential abundance analysis of stool metagenome; format: in vivo, human; design: key to * (direction of KEGG pathway change): “↑” means the pathway is up-regulated on day 16; “↓” means the pathway is down-regulated on day 16; conditions: for * (direction of KEGG pathway change): KEGG pathway of the table row, day 16
# Excerpt: HUMAnN2 (Abubucker et al., PLoS Comput. Biol. 8, e1002358 (2012)) was used to calculate gene and pathway abundance from metagenomic sequencing data. Uniref50 (UniProt® Consortium, Nucleic Acids Res. 43, D204 (2015)) was used for gene family definition. MetaCyc (Caspi et al., Nucleic Acids Res. 42, D459 (2014)) and KEGG (Kanehisa and Goto, Nucleic Acids Res. 28, 27 (2000); Kanehisa et al., Nucleic Acids Res. 44, D457 (2016)) were used for pathway analysis. • Gene family identification: Initially, 989251 gene families were identified from the dataset by HUMAnN2. Quantile normalization was implemented. For each sample, the RPK values were added up till 90% percentile of all genes (normalization factor, nf). RPK value of each gene in each sample was then divided by the nf of the sample, and multiplied with the mean of nf of all samples. 683270 uncharacterized genes were removed. Genes undetected in over 90% of samples (101994) were removed. 203987 genes were kept. Due to the large number of genes identified, 25% of the most varying genes were selected for further analysis. The most varying genes were defined by the coefficient variation (cv=sd/mean) of log 2 transformed value. • MetaCyc pathway identification: HUMAnN2 identified 567 MetaCyc pathways from the dataset. Quantile normalization was then performed. For each sample, the abundance values were added up till 90% percentile of all pathways (normalization factor, nf). Each pathway abundance in each sample was divided by the nf of the sample, and then multiplied with the mean of nf for all samples. The low abundance pathways (52), which were not detected on over 90% of all samples, were removed. 515 high quality MetaCyc pathways were kept for further analysis. • KEGG pathway identification: HUMAnN2 identified 160 KEGG pathways from the dataset. Quantile normalization was applied, and low abundance pathways were removed. 66 high quality KEGG pathways were kept for further analysis.
# gene abundance˜aov(day*OCAdose+error(subject ID)) • Pathway differential abundance analysis: For each of the identified pathways, repeated measure ANOVA was also performed to study the time effect and OCA dose effect on pathway abundance change.
# pathway abundance˜aov(day*OCAdose+error(subject ID)) • FGF19 analysis: The GEE model was applied in order to study the relationship of FGF19 change with the microbiome, gene family, and the pathway abundance change over time. The R function geeglm from R package geepack was used for gee modeling. Both FGF19 level and species/gene/pathway relative abundance were log 2 transformed before applying GEE model.
# endogenous bile acids = assay: Luminal bile acid concentrations in small intestine and feces of OCA-treated mice; format: in vivo
# Experimental: FIG. 54: Bar graphs showing the concentration of taurocholic acid and taurodeoxycholic acid at proximal small bowel and distal small bowel, or in feces, in samples collected from mice treated with control (methylcellulose) or OCA (10 mg/kg/day) for 14 days, followed by no treatment for additional 14 days. Statistically significant differences based on two-tailed Student t-tests are noted: p<0.05 (*) and p<0.01 (**).
# FIGS. 59A-59E: Effect of OCA administration on luminal bile acid concentrations in the murine small intestine and feces. […] Mean+SE, *p<0.05, **p<0.01, ***p<0.001. FIGS. 59D-59E show heatmaps of luminal bile acid concentrations in the proximal (FIG. 59D) and distal (FIG. 59E) small intestine.
# For example, Streptococci represent as much as 20% of the human small intestinal microbiota by 16S tagged sequencing (Dlugosz et al., Sci Rep-Uk, 5 (2015)); El Aidy et al., Curr Opin Biotechnol., 32, 14-20 (2015)). Some of these bacteria are environmental organisms used in the manufacturing of food introduced into the small intestine with diet, including Streptococcus thermophilus, Bifidobacterium breve, Lactobacillus casei, and Lactococcus lactis (Brigidi et al., International Journal of Food Microbiology, 81, 203-209 (2003); Derrien and van Hylckama Vlieg, Trends Microbiol., 23, 354-366 (2015); Stiles and Holzapfel, International Journal of Food Microbiology, 36, 1-29 (1997)). To determine whether OCA treatment can alter the gut microbiota composition specifically in the small intestine, mice were treated with OCA for 14 days, the microbiota composition in the proximal and distal small intestine, as well as the stool, and quantified bile acids were characterized. Since OCA was prepared in methylcellulose, an additional methylcellulose control group was included due to its previously described effect on fecal bile acid levels (Cox et al., FASEB J 27, 692-702 (2013)).
smiles,measurement,setting,value
"CC[C@H]1[C@@H](O)[C@@H]2[C@H](CC[C@]3(C)[C@@H]([C@H](C)CCC(=O)O)CC[C@@H]23)[C@@]2(C)CC[C@@H](O)C[C@@H]12 [OCA, 3α,7α-dihydroxy-6α-ethyl-5β-cholan-24-oic acid]",* (direction of KEGG pathway change),[1]; Fatty acid biosynthesis,↓
same,* (direction of KEGG pathway change),[1]; Purine metabolism,↑
same,number of KEGG pathways differentially abundant over time,"[1]; of 66, FDR<0.05 for time effect",26
same,OCA dose effect on KEGG pathway abundance,"[1]; repeated measure ANOVA, FDR<0.05",No OCA dose or dose×day interaction was observed
same,OCA in the small intestinal lumen of treated mice,"endogenous bile acids; 10 mg/kg OCA, 14 days",detectable
same,contribution of OCA to the total concentration of bile acids in the small intestinal lumen,"endogenous bile acids; 10 mg/kg OCA, 14 days",contributed minimally
same,luminal endogenous primary bile acids in the feces,"endogenous bile acids; 10 mg/kg OCA, 14 days",no effect
same,luminal endogenous primary bile acids in proximal and distal small intestine,"endogenous bile acids; 10 mg/kg OCA, 14 days, greatest in proximal small intestine",significant reduction
same,luminal cholic and taurocholic acids,"endogenous bile acids; 10 mg/kg OCA, 14 days, small intestine",largest consistent decreases
same,levels of taurocholic and taurodeoxycholic acids in proximal and distal small intestine,"endogenous bile acids; OCA 10 mg/kg/day, day 14",reduction
same,levels of taurocholic and taurodeoxycholic acids in the colon (feces),"endogenous bile acids; OCA 10 mg/kg/day, day 14",not in the colon (feces)
same,levels of taurocholic and taurodeoxycholic acids in the proximal small intestine after cessation,"endogenous bile acids; day 28, two weeks after cessation of OCA",continued reduction
